From the supplement of paper PMC11208160

Assay: recombinant UMI read abundance after kanamycin selection (control-corrected) (log10(CPM+1)); higher = more efficient recombination; extreme values may be limits of the assay; sequences stand for … in AGTGCAGAGAAAATCGGCCAGTTTTCTCTGCCTGCAGTCCGCATGCCGTGGGACCCCTTGGGTTCTAACCTGTTGCCTAGATTTATGCAGCGGACTGCCTTTCTCCCAAAGTGATAAACCGG…AGGTTGGTTTCACT; site = the 11-nt donor
Description: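 Pooled E. coli donor-specificity screen for the IS621 bridge recombinase. Each library member carries a reprogrammed 11-nt donor and a full-length LE bridge RNA expressed in cis from the natural promoter, with a paired donor-binding loop (8-nt LDG + 4-nt RDG) and a target-binding loop fixed to T5. It is co-electroporated with a T5 target plasmid; recombinase is induced with 0.07 mM IPTG and recombinants are selected on kanamycin. UMIs are counted as CPM, averaged over two biological replicates and corrected by the unselected control. Molecule = full bridge RNA written as DNA, built from the T5 scaffold: LDG = donor specificity nt 1-8, RDG = reverse complement of nt 8-11.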

Point of comparison: “AATAATGCATGGACCGGTTTTCCCGGTAATCCGTATTTGGA (site AATAATGCTTC)”, “recombinant UMI read abundance (log10)” value 1.06. Against it:
- GGCCCAACATGGACCGGTTTTCCCGGTAATCCGTATTTGTA (site GGCCCAACTTA) — lower, 0.848
- CCAGGTGCATGGACCGGTTTTCCCGGTAATCCGTATTTGAT (site CCAGGTGCTAA) — lower, 0.0192
- TGTATACCATGGACCGGTTTTCCCGGTAATCCGTATTTGAC (site TGTAGACCTGT) — lower, 0
- CGGGTGTCATGGACCGGTTTTCCCGGTAATCCGTATTTGTT (site CGGGTGTCTAA) — higher, 3.07
- CTCCCTACATGGACCGGTTTTCCCGGTAATCCGTATTTGAG (site CTCCGTACTCT) — lower, 0.0179
- TACGGAGCATGGACCGGTTTTCCCGGTAATCCGTATTTGCC (site AGTCTTACTAA) — lower, 0
- TCCAATACATGGACCGGTTTTCCCGGTAATCCGTATTTGCC (site TCCAATTCTGG) — lower, 0
- CAGTCGACATGGACCGGTTTTCCCGGTAATCCGTATTTGGG (site CAGTCCACTCC) — lower, 0.0168
- CCCATAGCATGGACCGGTTTTCCCGGTAATCCGTATTTGTC (site CCCATAACTGA) — lower, 0.433
- CGTTCATCATGGACCGGTTTTCCCGGTAATCCGTATTTGCT (site CGTTCATCTAG) — higher, 1.35
- CCGTTAGCATGGACCGGTTTTCCCGGTAATCCGTATTTGTG (site CCGTTAGCTGA) — lower, 0
- ACTACCTCATGGACCGGTTTTCCCGGTAATCCGTATTTGTT (site ACTACCTCTAA) — within 0.2 log units, 1.19
- CGACCATCATGGACCGGTTTTCCCGGTAATCCGTATTTGCT (site CGAGCATCTAG) — lower, 0
- CGGCGTGCATGGACCGGTTTTCCCGGTAATCCGTATTTGAC (site CGGCGTGCTGT) — higher, 2.82
- GGAGGGGCATGGACCGGTTTTCCCGGTAATCCGTATTTGGT (site GGAGCGGCTAC) — lower, 0.00457
- AAGAGGACATGGACCGGTTTTCCCGGTAATCCGTATTTGCA (site AAGAGGACTTG) — higher, 2.65
- CCGAAGGCATGGACCGGTTTTCCCGGTAATCCGTATTTGTG (site CCGAAGGCTCA) — lower, 0.495
- CCGTTAGCATGGACCGGTTTTCCCGGTAATCCGTATTTGTG (site ACGTTAGCTCA) — lower, 0.0114
- GGGAAGCCATGGACCGGTTTTCCCGGTAATCCGTATTTGGG (site GGGAAGCCTCC) — lower, 0.00361
- TCACCTGCATGGACCGGTTTTCCCGGTAATCCGTATTTGTT (site TCACCTGCTAA) — lower, 0.063
- ACAAAGACATGGACCGGTTTTCCCGGTAATCCGTATTTGCA (site AGGAAGACTTG) — higher, 2.33
- ACGGTATCATGGACCGGTTTTCCCGGTAATCCGTATTTGCG (site ACGGTATCTCG) — higher, 3.15
- ACGGTTTCATGGACCGGTTTTCCCGGTAATCCGTATTTGTG (site ACGGTTTCTCA) — higher, 2.4
- CCAGATGCATGGACCGGTTTTCCCGGTAATCCGTATTTGAT (site CCAGGTGCTAT) — lower, 0.261
- ATAAGGCCATGGACCGGTTTTCCCGGTAATCCGTATTTGCC (site ATAAGGCCTGC) — lower, 0
- ATCGATACATGGACCGGTTTTCCCGGTAATCCGTATTTGAC (site ATCCATACTGT) — lower, 0
- CTACTGACATGGACCGGTTTTCCCGGTAATCCGTATTTGGA (site CTACTAACTTC) — higher, 1.76
- AAGCGTCCATGGACCGGTTTTCCCGGTAATCCGTATTTGAT (site AATCGTCCTAT) — lower, 0.017
- GCGAAAACATGGACCGGTTTTCCCGGTAATCCGTATTTGCT (site GCGAAATCTAG) — lower, 0.325
- CAGGCCGCATGGACCGGTTTTCCCGGTAATCCGTATTTGAG (site CAGGCCGCTCT) — lower, 0.33
- TCCACTTCATGGACCGGTTTTCCCGGTAATCCGTATTTGAG (site TCCACTTCTCT) — lower, 0.0133
- GCGAAGGCATGGACCGGTTTTCCCGGTAATCCGTATTTGGG (site GCGAAGTCTCC) — lower, 0.779
- AGGAAGACATGGACCGGTTTTCCCGGTAATCCGTATTTGCA (site GGGCAGACTTG) — lower, 0.837
- CAGTCGACATGGACCGGTTTTCCCGGTAATCCGTATTTGGG (site CAGTCGACTAC) — lower, 0.0109
- CAGTCGACATGGACCGGTTTTCCCGGTAATCCGTATTTGGG (site CAGTCGACTCC) — lower, 0.297
- CTCCCTACATGGACCGGTTTTCCCGGTAATCCGTATTTGAG (site CTCCCTACTAT) — lower, 0.455
- AGGAAGACATGGACCGGTTTTCCCGGTAATCCGTATTTGCA (site AGGAAGACTTG) — higher, 2.88
- GCTTGCCCATGGACCGGTTTTCCCGGTAATCCGTATTTGAA (site GCTTGCCCTTT) — lower, 0.0264
- CTGCGACCATGGACCGGTTTTCCCGGTAATCCGTATTTGCT (site CTGCTACCTAG) — lower, 0
- ATGTAGCCATGGACCGGTTTTCCCGGTAATCCGTATTTGTT (site ATGTAGCCTAA) — lower, 0.171
- GACGATTCATGGACCGGTTTTCCCGGTAATCCGTATTTGTT (site GAAGATTCTAA) — lower, 0.149
- GGTACGTCATGGACCGGTTTTCCCGGTAATCCGTATTTGTT (site GGTACGTCTGA) — lower, 0
- CTGGAGGCATGGACCGGTTTTCCCGGTAATCCGTATTTGTG (site GTGGAGGCTCA) — lower, 0.0315
- TGCCCGGCATGGACCGGTTTTCCCGGTAATCCGTATTTGGC (site TGCCCGGCTGC) — lower, 0
- CAGTCGACATGGACCGGTTTTCCCGGTAATCCGTATTTGGG (site CAGTGGACTCC) — lower, 0.0181
- CCAGATGCATGGACCGGTTTTCCCGGTAATCCGTATTTGAT (site CCAGTTGCTAT) — lower, 0.00471
- GTTATAACATGGACCGGTTTTCCCGGTAATCCGTATTTGGC (site GTTAAAACTGC) — lower, 0
- CTCCCTACATGGACCGGTTTTCCCGGTAATCCGTATTTGAA (site CTCCCTACTAT) — lower, 0.112
- ATGCCACCATGGACCGGTTTTCCCGGTAATCCGTATTTGTA (site ATGCCACCTTA) — lower, 0
- TGAACACCATGGACCGGTTTTCCCGGTAATCCGTATTTGAC (site TGCACACCTGT) — lower, 0
- GTTACACCATGGACCGGTTTTCCCGGTAATCCGTATTTGAA (site GTTACACCTTT) — lower, 0.0186
- GGTCAAACATGGACCGGTTTTCCCGGTAATCCGTATTTGTA (site GGTCGAACTTA) — lower, 0.00424
- TAGGAGTCATGGACCGGTTTTCCCGGTAATCCGTATTTGCG (site TAGGACTCTCG) — within 0.2 log units, 1.24
- CGAGAACCATGGACCGGTTTTCCCGGTAATCCGTATTTGAT (site CGTGAACCTAT) — lower, 0
- GCGACGCCATGGACCGGTTTTCCCGGTAATCCGTATTTGGG (site GCGATGCCTCC) — lower, 0.00415
- TCATCGTCATGGACCGGTTTTCCCGGTAATCCGTATTTGAA (site TCATCGTCTTT) — lower, 0.467
